Laboratory results as given in patent US7378417B2, “Pyrazolo-pyrimidine derivatives” (Hoffmann-La Roche Inc., priority 2004, dated 2008).
pKi: −log10 of the molar value.

Experiments:
rat mGlu2 receptor = molecular target: T1, rat mGlu2 receptor (Rattus norvegicus, UniProt P31421); assay: [3H]-LY354740 binding on mGlu2 transfected CHO cell membranes; details: displacement of 10 nM [3H]-LY354740, CHO cell membranes, room temperature, 1 hour
T1 construct: expressed in transfected cells; host or cells: CHO cells, stably transfected with pcD1mGR2 (G-418 selection); membranes used
Excerpt: [^3H]-LY354740 Binding on mGlu2 Transfected CHO Cell Membranes. Transfection and Cell Culture
cDNA encoding the rat mGlu2 receptor protein in pBluescript II was subcloned into the eukaryotic expression vector pcDNA I-amp from Invitrogen Ltd (Paisley, UK). This vector construct (pcD1mGR2) was co-transfected with a psvNeo plasmid encoding the gene for neomycin resistance, into CHO cells by a modified calcium phosphate method described by Chen & Okayama (1988). The cells were maintained in Dulbecco's Modified Eagle medium with reduced L-glutamine (2 mM final concentration) and 10% dialysed foetal calf serum from Gibco-Invitrogen (Carlsbad, Calif., USA). Selection was made in the presence of G-418 (1000 ug/ml final) and […]. Clones were identified by reverse transcription of 5 μg total RNA, followed by PCR using mGlu2 receptor specific primers 5′-[…]-3′ and 5′-[…]-3′ in 60 mM Tris HCl (pH 10), 15 mM (NH4)2SO4, 2 mM MgCl2, 25 units/ml Taq Polymerase with 30 cycles annealing at 60° C. for 1 min., extention at 72° C. for 30 s, and 1 min. 95° C. denaturation.
Cells, cultured as above, were harvested and washed three times with cold PBS and frozen at −80° C. The pellet was resuspended in cold 20 mM HEPES-NaOH buffer containing 10 mM EDTA (pH 7.4), and homogenised with a polytron (Kinematica, AG, Littau, Switzerland) for 10 s at 10 000 rpm. After centrifugation for 30 min. at 4° C., the pellet was washed once with the same buffer, and once with cold 20 mM HEPES-NaOH buffer containing 0.1 mM EDTA, (pH 7.4). Protein content was measured using the micro BCA method from Pierce-Perbio (Rockford, Ill., USA) using bovine serum albumin as standard.
After thawing, the membranes were resuspended in cold 50 mM Tris-HCl buffer containing 2 mM MgCl2 (pH 7) (binding buffer). The final concentration of the membranes in the assays was 25 μg protein/ml. Inhibition experiments were performed with membranes incubated with 10 nM [^3H]-LY354740 at room temperature, for 1 hour, in presence of various concentrations of the compound to be tested. Following the incubations, membranes were filtered onto Whatmann GF/B glass fiber filters and washed 5 times with cold binding buffer. Non specific binding was measured in the presence of 10 μM DCG IV. After transfer of the filters into plastic vials containing 10 ml of Ultima-gold scintillation fluid from Perkin-Elmer (Boston, Mass., USA), the radioactivity was measured by liquid scintillation in a Tri-Carb 2500 TR counter (Packard, Zürich, Switzerland).
The inhibition curves were fitted with a four parameter logistic equation giving IC50 values, and Hill coefficients.

T1 sequence (P31421 19-872): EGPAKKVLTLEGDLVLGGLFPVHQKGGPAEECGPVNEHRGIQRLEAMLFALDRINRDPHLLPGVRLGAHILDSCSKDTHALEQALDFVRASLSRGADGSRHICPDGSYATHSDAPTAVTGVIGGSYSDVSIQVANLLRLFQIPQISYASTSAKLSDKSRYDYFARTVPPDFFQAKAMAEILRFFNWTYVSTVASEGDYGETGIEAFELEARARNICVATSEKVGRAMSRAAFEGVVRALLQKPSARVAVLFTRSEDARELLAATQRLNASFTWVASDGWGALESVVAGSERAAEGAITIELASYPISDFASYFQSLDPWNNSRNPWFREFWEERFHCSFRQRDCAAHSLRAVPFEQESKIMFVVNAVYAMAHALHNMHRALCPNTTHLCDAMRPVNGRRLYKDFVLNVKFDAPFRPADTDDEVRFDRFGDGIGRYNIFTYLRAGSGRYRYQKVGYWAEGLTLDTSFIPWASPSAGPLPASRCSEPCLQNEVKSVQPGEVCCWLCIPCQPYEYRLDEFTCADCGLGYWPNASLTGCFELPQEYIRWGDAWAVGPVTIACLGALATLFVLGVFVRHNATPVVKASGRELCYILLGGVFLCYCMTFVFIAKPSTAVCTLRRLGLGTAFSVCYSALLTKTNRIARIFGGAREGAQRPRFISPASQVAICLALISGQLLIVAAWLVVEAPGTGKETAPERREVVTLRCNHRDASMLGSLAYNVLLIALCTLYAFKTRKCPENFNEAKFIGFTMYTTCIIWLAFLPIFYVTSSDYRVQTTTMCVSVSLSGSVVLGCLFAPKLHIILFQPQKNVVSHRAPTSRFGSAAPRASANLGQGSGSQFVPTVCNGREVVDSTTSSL

| pKi (rat mGlu2 receptor) | melting point | Structure (SMILES) |
| --- | --- | --- |
| 7.52 | 233 °C | O=C(Nc1cccc(S(=O)(=O)N2CCOCC2)c1)c1cnn2c(C(F)(F)F)cc(-c3ccc(C(F)(F)F)cc3)nc12 [Example 1, 7-Trifluoromethyl-5-(4-trifluoromethyl-phenyl)-pyrazolo[1,5-a]pyrimidine-3-carboxylic acid[3-(morpholine-4-sulfonyl)-phenyl]-amide] |
| – | 257 °C | O=C(Nc1cccc(S(=O)(=O)NCC(F)(F)F)c1)c1cnn2c(C(F)F)cc(-c3ccc(C(F)(F)F)cc3)nc12 [Example 52, 7-Difluoromethyl-5-(4-trifluoromethyl-phenyl)-pyrazolo[1,5-a]pyrimidine-3-carboxylic acid [3-(2,2,2-trifluoro-ethylsulfamoyl)-phenyl]-amide] |
| – | 238 °C | O=C(Nc1cccc(S(=O)(=O)NCC2CC2)c1)c1cnn2c(C(F)F)cc(-c3ccc(C(F)(F)F)cc3)nc12 [Example 73, 7-Difluoromethyl-5-(4-trifluoromethyl-phenyl)-pyrazolo[1,5-a]pyrimidine-3-carboxylic acid [3-(cyclopropylmethyl-sulfamoyl)-phenyl]-amide] |
| 7.17 | 228 °C | O=C(Nc1cccc(S(=O)(=O)Nc2ccccc2)c1)c1cnn2c(C(F)F)cc(-c3ccc(C(F)(F)F)cc3)nc12 [Example 74, 7-Difluoromethyl-5-(4-trifluoromethyl-phenyl)-pyrazolo[1,5-a]pyrimidine-3-carboxylic acid(3-phenylsulfamoyl-phenyl)-amide] |
| 7.96 | 241 °C | NS(=O)(=O)c1cccc(NC(=O)c2cnn3c(C(F)F)cc(-c4ccc(C(F)(F)F)c(OCC(F)(F)F)c4)nc23)c1 [Example 79, 7-Difluoromethyl-5-[3-(2,2,2-trifluoro-ethoxy)-4-trifluoromethyl-phenyl]-pyrazolo[1,5-a]pyrimidine-3-carboxylic acid(3-sulfamoyl-phenyl)-amide] |
| – | 231 °C | O=C(Nc1cccc(S(=O)(=O)NCCO)c1)c1cnn2c(C(F)F)cc(-c3ccc(C(F)(F)F)cc3)nc12 [Example 83, 7-Difluoromethyl-5-(4-trifluoromethyl-phenyl)-pyrazolo[1,5-a]pyrimidine-3-carboxylic acid [3-(2-hydroxy-ethylsulfamoyl)-phenyl]-amide] |
| 7.82 | 221 °C | O=C(Nc1cccc(S(=O)(=O)NCc2ccncc2)c1)c1cnn2c(C(F)F)cc(-c3ccc(C(F)(F)F)cc3)nc12 [Example 88, 7-Difluoromethyl-5-(4-trifluoromethyl-phenyl)-pyrazolo[1,5-a]pyrimidine-3-carboxylic acid {3-[(pyridin-4-ylmethyl)-sulfamoyl]-phenyl}-amide] |
| – | 205 °C | O=C(Nc1cccc(S(=O)(=O)CCO)c1)c1cnn2c(C(F)F)cc(-c3ccc(C(F)(F)F)cc3)nc12 [Example 90, 7-Difluoromethyl-5-(4-trifluoromethyl-phenyl)-pyrazolo[1,5-a]pyrimidine-3-carboxylic acid [3-(2-hydroxy-ethanesulfonyl)-phenyl]-amide] |
| – | 256 °C | O=C(Nc1cccc(S(=O)(=O)NCc2cccnc2)c1)c1cnn2c(C(F)F)cc(-c3ccc(C(F)(F)F)cc3)nc12 [Example 106, 7-Difluoromethyl-5-(4-trifluoromethyl-phenyl)-pyrazolo[1,5-a]pyrimidine-3-carboxylic acid {3-[(pyridin-3-ylmethyl)-sulfamoyl]-phenyl}-amide] |
| 8.15 | 184 °C | CN(C)CCNS(=O)(=O)c1cccc(NC(=O)c2cnn3c(C(F)F)cc(-c4ccc(C(F)(F)F)cc4)nc23)c1 [Example 144, 7-Difluoromethyl-5-(4-trifluoromethyl-phenyl)-pyrazolo[1,5-a]pyrimidine-3-carboxylic acid[3-(2-dimethylamino-ethylsulfamoyl)-phenyl]-amide] |
